For series [1], the system named is COPD patients. The note with it: according to the reports (Non-patent documents 7, 8 and patent document 1); cited from earlier work.
Series [2] concerns human neutrophils. The series is described as follows: LTB4-induced human neutrophil migration (48-well modified Boyden chamber). Format: cell-based. To be noted: test substance 10 μmol/L; 10 nmol/L LTB4. As for the experimental part:
Leukocytes were collected from human peripheral blood samples (20 mL of venous blood was taken by a doctor) were obtained from 4 healthy adults (male). They received sufficient information on the purpose of the experiment and gave informed consent in advance. An equivalent amount of 3% dextran (M.W. 208000) saline solution was added to the heparinized blood thus obtained and the mixture was kept to stand for one hour. Thereafter, the supernatant was collected and centrifuged at 150 g for 5 minutes at 4° C. The supernatant was discarded and the pellet was repeatedly twice haemolysed. To explain in detail, 4 mL of an ice-cooled 0.2% NaCl solution was added, quickly suspended and allowed to stand for 20 to 30 seconds. Thereafter, 4 mL of an ice-cooled 1.6% NaCl solution was added to the suspension solution to return the solution to the isotonic condition. After centrifugation was performed at 150 g for 5 minutes at 4° C., the same treatment was repeated. The cell pellet obtained was finally suspended in a buffer (Hank's solution containing 0.1% FBS) and subjected to an experiment.
This experiment was performed using a 48-well modified Boyden chamber (Neuro Probe). To explain in detail, the wells of the bottom plate of the chamber were filled with 25 μl of vehicle solution containing 10 nmol/L of LTB4. A polycarbonate filter (PVP-free, pore size: 3 μm) was placed on the bottom plate. The top plate of the chamber was mounted and each well of the upper plate was filled with 45 μL of a leukocyte suspension solution (1.0×10^6 cells/mL) prepared with the buffer. Immediately after that, 5 μL of a test substance (10 fold concentration of a final concentration) was added to the wells. […] The numbers of cells were counted in 4 visual fields (×400) per well and the average of them was regarded as the number of migrated cells. Each test substance was evaluated using 3 wells. The average value of these wells was calculated and regarded as the value of each substance.
The average and standard deviation of each group were calculated. […]

Series [3] has as its system PPE-induced pulmonary emphysema model. Kind of series: PPE-induced pulmonary emphysema model in mice. The format is in vivo. Here is the method:
Eight-week old C57BL strain mice were anaesthetized with isoflurane. PPE (25 μg) was administered once to the lung through a cannula inserted into the trachea through the pharyngolarynx to induce a pulmonary damage. To a non-PPE administration group (normal group), saline was administered instead. In a preventive administration experiment (hereinafter referred to as a “preventive experiment”) of KP-496, drug effect was evaluated on inflammatory cells in BALF 2 days after PPE administration and by histopathological examination of the lung after 10 days. In a therapeutic administration experiment of KP-496 (hereinafter referred to as a “therapeutic experiment”), the drug effect was evaluated by histo-pathological examination of the lung and weight of the organs 14 days after PPE administration.
The medicament administration period was set from the PPE administration date to the day before autopsy in the preventive experiment and set from a predetermined day (KP-496A group: PPE administration date, KP-496B group: 3 days after PPE administration date, KP-496C group: 7 days after PPE administration date) to the day before autopsy in the therapeutic experiment. Inhalation administration of KP-496 was performed in the same manner as in Example 2. Furthermore, the normal group and the control group were allowed to spontaneously inhale saline, instead. A medicament for use in comparison, prednisolone, was orally administered in a dose of 5 mg/kg twice a day. A group consisted of 10 animals.
The animals were anaesthetized with pentobarbital and killed by exsanguination. Immediately after that, BAL of the right and left lungs was performed with 2 ml of saline. In the same manner as in Example 2, the total number of cells and the number of cells according to the cell type in the BALE were determined.
The lung was excised out from the animal killed by exsanguination in the same manner as in the above, the weight of the lung was measured. The lung was fixed in 10 vol % neutral buffered formalin solution. A pathological tissue sample was prepared in accordance in a general way. The degree of the damage of the lung tissue observed was evaluated by scoring in the same manner as in Example 2. Furthermore, the average of alveolar-space area of the entire lung tissue sample was computationally measured with image-processing software.
The average value and standard deviation of each group were calculated. Comparison between the normal group and the control group was performed by the Levene's test for equal variance and then, the t-test was performed depending on the results. To compare the control group and test substance administration groups, equal variance was first confirmed by the Levene's test and then multiple comparisons were performed in accordance with the Dunnett's test. Note that evaluation parameters with unequal variance and the damage score of the lung tissue were analyzed by nonparametric Mann-Whitney test. The significance level employed was […].

The test system of series [4] is vanadium pentoxide-induced bronchitis model. Kind of series: Vanadium pentoxide-induced bronchitis model in mice. Format: in vivo. The note with it: 7 days after vanadium pentoxide; compared with control. As for the experimental part:
Seven-week old C57BL strain male mice were used. The mouse was anaesthetized with isoflurane. Vanadium pentoxide (20 μg) was administered once to the lung through a cannula inserted into the trachea through the pharyngolarynx to induce pathology. To a non-vanadium pentoxide administration group (normal group), saline was administered, instead. KP-496 was administered by inhalation twice a day in the period from the vanadium pentoxide administration date to the day before autopsy, in the same manner as in Example 2. Furthermore, the normal group and the control group were allowed to spontaneously inhale saline in the same manner. A medicament for use in comparison, prednisolone, was orally administered at a dose of 5 mg/kg twice a day in the period from the vanadium pentoxide administration date to the day before autopsy. Note that the normal group consisted of 6 animals and the other group consisted of 10 animals. Each of the mice was anaesthetized with pentobarbital 7 days after vanadium pentoxide administration and killed by bloodletting from the abdominal aorta. The lung was excised out and fixed in 10 vol % neutral buffered formalin solution. […] The obtained value was divided by the circumferential length of the bronchial lumen (obtained in mucosal basal membrane) and the quotient was expressed as a mucus producing region area per millimeter of the bronchus. […]

On to `COc1cc(C(=O)NS(=O)(=O)c2ccccc2C)ccc1Cc1cn(C)c2ccc(NC(=O)OC3CCCC3)cc12` [zafirlukast], for which the “respiratory function of COPD patients” value in series [1] is listed as “improves the respiratory function”.

`CC1=C(C)C(=O)C(C(CCCCCC(=O)O)c2ccccc2)=C(C)C1=O` (centres unmarked) [seratorodast, reference compound]: the “suppression of LTB4-induced neutrophil migration” value in series [2] is “did not suppress the migration at all”. The “respiratory function of COPD patients” value in series [1] is recorded as “improves the respiratory function”.

For `C[C@]12C=CC(=O)C=C1CC[C@@H]1[C@@H]2[C@@H](O)C[C@@]2(C)[C@H]1CC[C@]2(O)C(=O)CO` [prednisolone, reference compound], the “total number of cells in BALF” value in series [3] (2 days after PPE administration, preventive experiment) is given as 4.3±2.1 ×10^5 cells. Also, the “number of eosinophils in BALF” value in series [3] (2 days after PPE, compared to control group) was “significantly decreased”. The “weights of the organs (liver, spleen and thymus gland)” value in series [3] (compared to control group) is reported as “significantly decreased”. In addition, in series [3] (preventive experiment, 10 days after PPE), the “increase in lung weight” value was “significantly suppressed”. The “damage score of the lung” value in series [3] (preventive experiment, 10 days after PPE, compared with control group) was “significantly decreased”. Further, in series [3] (preventive experiment, up to 10 days after PPE, compared to control group), the body weight change result is “significant reduction compared to the control group”. The “increase of the average of the alveolar-space area” value in series [3] (preventive experiment, compared to control) is reported as “significantly suppressed”. Also, in series [4], the “increase of PAS positive area (mucus producing region of intrapulmonary bronchial epithelium)” value is “significantly suppressed”.
